Assay results reported in US20250127700A1, “METHODS OF TREATING HYPERPIGMENTATION DISORDERS” (DermBiont, Inc., priority 2016, published 2025).
pIC50: −log10 of the molar value. “Also recorded” adds a separate entry of the source.

What was measured:
[1] = tested on: C47 BI/6 mice; test: Lightening of regrowing hair pigmentation in depilated mice, topical application; type: in vivo; conditions: 4% HQ; for Average gray value within the hair shafts, awl hairs / Average gray value within the hair shafts, zig-zag hairs: topical daily for 19 days after depilation, scale 0 (white) to 255 (black); for Average gray value within the hair shafts, awl hairs: 100 μm (0.0057%) Bis or ruboxistaurin in DMSO:propylene glycol, control value 181; for Maximum degree of hair lightening, zig-zag hairs below versus above the median gray value: zig-zag (small) hairs, FIG. 3, 0.0057% ruboxistaurin; for Color of zig-zag hairs compared to vehicle control (micrograph): FIG. 1, 100 μm Bis or ruboxistaurin; for Average gray value within the hair shafts, zig-zag hairs: 100 μm (0.0057%) Bis or ruboxistaurin, control 159
From the text: Briefly, […] mice aged 8-9 weeks (3 per group) were depilated to remove back hairs. These mice have black hair but no melanin pigmentation in the skin. Melanocytes in the hair follicle are responsible for the coat color. […] All compounds and vehicle were applied daily to the depilated areas for 19 days after depilation, i.e. throughout the period during which the new hair shafts are produced following depilation. Representative hairs of each type: guard, awl (large follicles deep in the dermis or subcutaneous follicle), auchene, and zig-zag (smaller follicles set in the more superficial dermis and the most numerous type of coat hairs), were randomly plucked (50/mouse) and photographed under a dissecting microscope. For separate analysis, 20 dark and light hairs from each mouse were subjected to computer assisted analysis of “gray value” for the pixels comprising the hair shaft.
Average gray value within the hair shafts were determined using ImageJ (NIH) software. The gray value is the sum of the gray values of all the pixels in the hair shaft divided by the number of pixels; and values range from 0 (white, no pigment) to 255 (black).
To determine the maximum degree of hair lightening (attributable to maximal drug exposure), an additional comparison was made between zig-zag hairs in each group that fell below versus above the median gray value.

[2] = Solubility statement; type: physicochemical
[3] = molecular target: PKC isoform γ (Homo sapiens, UniProt P05129); conditions: Jirousek et al. J Med Chem 1996; cited from earlier work
[4] = molecular target: PKC isoform η (Homo sapiens, UniProt P24723); conditions: Jirousek et al. J Med Chem 1996; cited from earlier work
PKC isoform η, sequence (P24723 whole entry, canonical isoform): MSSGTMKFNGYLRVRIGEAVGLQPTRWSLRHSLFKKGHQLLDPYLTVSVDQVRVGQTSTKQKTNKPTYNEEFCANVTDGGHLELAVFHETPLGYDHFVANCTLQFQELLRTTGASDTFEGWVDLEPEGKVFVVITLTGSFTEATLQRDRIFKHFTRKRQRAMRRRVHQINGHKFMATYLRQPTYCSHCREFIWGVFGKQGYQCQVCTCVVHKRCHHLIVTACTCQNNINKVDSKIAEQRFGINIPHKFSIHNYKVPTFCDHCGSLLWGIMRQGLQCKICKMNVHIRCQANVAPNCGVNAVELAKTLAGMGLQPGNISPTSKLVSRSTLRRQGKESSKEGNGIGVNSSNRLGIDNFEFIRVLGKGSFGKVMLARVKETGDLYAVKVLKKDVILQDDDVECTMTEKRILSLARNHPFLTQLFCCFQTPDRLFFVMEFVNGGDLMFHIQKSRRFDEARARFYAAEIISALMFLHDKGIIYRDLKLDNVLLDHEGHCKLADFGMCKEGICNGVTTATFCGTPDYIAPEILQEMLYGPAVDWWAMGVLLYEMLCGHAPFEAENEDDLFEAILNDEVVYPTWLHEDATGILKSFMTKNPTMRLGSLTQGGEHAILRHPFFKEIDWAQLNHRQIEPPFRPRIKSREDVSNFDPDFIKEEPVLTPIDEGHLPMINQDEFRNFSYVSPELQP

Structure (SMILES): Oc1ccc(O)cc1 [HQ, hydroquinone]
- Average gray value within the hair shafts, awl hairs [1]: 168
- Maximum degree of hair lightening, zig-zag hairs below versus above the median gray value [1]: minimally lighter than control hairs
- Color of zig-zag hairs compared to vehicle control (micrograph) [1]: minimal color difference
- Average gray value within the hair shafts, zig-zag hairs [1]: 156

Structure (SMILES): CN(C)CC1CCn2cc(c3ccccc32)C2=C(C(=O)NC2=O)c2cn(c3ccccc23)CCO1 (centres unmarked) [ruboxistaurin, 9-[(dimethylamino)methyl]-6,7,10,11-tetrahydro-9H,18H-5,21:12,17-di(metheno)dibenzo[e,k]pyrrolo[3,4-h][1,2,13]oxadiazacyclohexadecine-18,20-dione]
- Solubility [2]: poorly soluble
- pIC50 [3]: 6.52
- Average gray value within the hair shafts, awl hairs [1]: 155
- Maximum degree of hair lightening, zig-zag hairs below versus above the median gray value [1]: lighter than both control and 4% HQ hairs
- Color of zig-zag hairs compared to vehicle control (micrograph) [1]: significantly lighter; also recorded: lightest
- Average gray value within the hair shafts, zig-zag hairs [1]: 134
- pIC50 [4]: 7.28
